Laboratory results from US20260262643A1, “HERBICIDAL BENZOXAZINES” (FMC CORPORATION, priority 2022, published 2026).

Experiments:
[1] = system: barnyardgrass; test: Test C preemergence; type: in vivo, Echinochloa crusgalli; details: Preemergence, 1000 g ai/ha; visual rating after 10 days, 0 to 100 scale (0 no effect, 100 complete control)
From the text: (§1) Seeds of plant species selected from barnyardgrass (Echinochloa crusgalli), blackgrass (Alopecurus myosuroides), corn (Zea mays), foxtail, giant (giant foxtail, Setaria faberi), green foxtail (Setaria viridis), goosegrass (Eleusine indica), kochia (Bassia scoparia), oat, wild (wild oat, Avena fatua), pigweed, palmer (palmer amaranth, palmer pigweed, Amaranthus palmeri), Pigweed, Redroot (redroot pigweed, Amaranthus retroflexus), ragweed (common ragweed, Ambrosia artemisiifolia), ryegrass, Italian ([…] ryegrass, Lolium multiflorum), soybean (Glycine max), and wheat (Triticum aestivum) were planted into a blend of loam soil and sand and treated preemergence with a directed soil spray using test chemicals formulated in a non-phytotoxic solvent mixture which included a surfactant. At the same time, plants selected from these crops and weed species and also galium (catchweed bedstraw, Galium aparine) and horseweed (Erigeron canadensis) were planted in pots containing the same blend of loam soil and sand and treated with postemergence applications of test chemicals formulated in the same manner. Plants ranged in height from 2 to 10 cm and were in the one- to two-leaf stage for the postemergence treatment. Treated plants and untreated controls were maintained in a greenhouse for 10 days, after which time all treated plants were compared to untreated controls and visually evaluated for injury. Plant response ratings, summarized in Table C, are based on a 0 to 100 scale where 0 is no effect and 100 is complete control. A dash (-) response means no test result.

[2] = system: blackgrass; test: Test C preemergence; type: in vivo, Alopecurus myosuroides; details: Preemergence, 1000 g ai/ha; visual rating after 10 days, 0 to 100 scale (0 no effect, 100 complete control)
From the text: as §1

[3] = system: green foxtail; test: Test C preemergence; type: in vivo, Setaria viridis; details: Preemergence, 1000 g ai/ha; visual rating after 10 days, 0 to 100 scale (0 no effect, 100 complete control)
From the text: as §1

[4] = system: kochia; test: Test C preemergence; type: in vivo, Bassia scoparia; details: Preemergence, 1000 g ai/ha; visual rating after 10 days, 0 to 100 scale (0 no effect, 100 complete control)
From the text: as §1

[5] = system: pigweed, palmer; test: Test C preemergence; type: in vivo, Amaranthus palmeri; details: Preemergence, 1000 g ai/ha; visual rating after 10 days, 0 to 100 scale (0 no effect, 100 complete control)
From the text: as §1

[6] = system: ragweed; test: Test C preemergence; type: in vivo, Ambrosia artemisiifolia; details: Preemergence, 1000 g ai/ha; visual rating after 10 days, 0 to 100 scale (0 no effect, 100 complete control)
From the text: as §1

[7] = system: ryegrass, Italian; test: Test C preemergence; type: in vivo, Lolium multiflorum; details: Preemergence, 1000 g ai/ha; visual rating after 10 days, 0 to 100 scale (0 no effect, 100 complete control)
From the text: as §1

[8] = system: barnyardgrass; test: Test C postemergence; type: in vivo, Echinochloa crusgalli; details: Postemergence, 1000 g ai/ha
From the text: as §1

[9] = system: blackgrass; test: Test C postemergence; type: in vivo, Alopecurus myosuroides; details: Postemergence, 1000 g ai/ha
From the text: as §1

[10] = system: green foxtail; test: Test C postemergence; type: in vivo, Setaria viridis; details: Postemergence, 1000 g ai/ha
From the text: as §1

[11] = system: kochia; test: Test C postemergence; type: in vivo, Bassia scoparia; details: Postemergence, 1000 g ai/ha
From the text: as §1

[12] = system: pigweed, palmer; test: Test C postemergence; type: in vivo, Amaranthus palmeri; details: Postemergence, 1000 g ai/ha
From the text: as §1

[13] = system: ragweed; test: Test C postemergence; type: in vivo, Ambrosia artemisiifolia; details: Postemergence, 1000 g ai/ha
From the text: as §1

[14] = system: ryegrass, Italian; test: Test C postemergence; type: in vivo, Lolium multiflorum; details: Postemergence, 1000 g ai/ha
From the text: as §1

[15] = system: galium; test: Test C postemergence; type: in vivo, Galium aparine; details: Postemergence, 1000 g ai/ha
From the text: as §1

[16] = system: horseweed; test: Test C postemergence; type: in vivo, Erigeron canadensis; details: Postemergence, 1000 g ai/ha
From the text: as §1

[17] = 0 to 100 scale, 0 no effect, 100 complete control
[18] = 10 days, visual 0 to 100 scale (0 no effect, 100 complete control)

Row | SMILES | Plant response rating, Barnyardgrass [1] | Plant response rating, Blackgrass [2] | Plant response rating, Foxtail, Green [3] | Plant response rating, Kochia [4] | Plant response rating, Pigweed, Palmer [5] | Plant response rating, Ragweed [6] | Plant response rating, Ryegrass, Italian [7] | Plant response rating, Barnyardgrass [8, 17] | Plant response rating, Blackgrass [9, 17] | Plant response rating, Foxtail, Green [10, 17] | Plant response rating, Kochia [11, 17] | Plant response rating, Pigweed, Palmer [12, 17] | Plant response rating, Ragweed [13, 17] | Plant response rating, Ryegrass, Italian [14, 17] | Plant response rating, Galium [15, 17] | Plant response rating, Horseweed [16, 17] | Plant response rating, Blackgrass [9, 18] | Plant response rating, Foxtail, Green [10, 18] | Plant response rating, Kochia [11, 18] | Plant response rating, Pigweed, Palmer [12, 18] | also measured
1 | C[C@H]1CN(C(=O)c2cccc(N3CCOCC3)c2)c2cccc(Cl)c2O1 [Compound 166] | 0 | 0 | 0 | 0 | 0 | 0 | 0 | 0 | 0 | 0 | 0 | 10 | 0 | 0 | 20 | 0 |  |  |  |  | 
2 | Cc1nsc(-c2cccc(C(=O)N3C[C@H](C)Oc4c(Cl)cccc43)c2)n1 [Compound 390] | 80 | 20 | 100 | 50 | 90 | 30 | 80 |  |  |  |  |  |  |  |  |  | 50 | 20 | 70 | 80 | Plant response rating, Barnyardgrass [8, 18]: 50; Plant response rating, Ragweed [13, 18]: 30; Plant response rating, Ryegrass, Italian [14, 18]: 20; Plant response rating, Galium [15, 18]: 80; Plant response rating, Horseweed [16, 18]: 0
3 | Cc1ccn(-c2cccc(C(=O)N3C[C@H](C)Oc4c(Cl)cccc43)c2)n1 [Compound 206] | 30 | 0 | 20 | 10 | 30 | 0 | 80 | 0 |  |  |  |  |  |  |  |  | 0 | 0 | 20 | 50 | Plant response rating, Ragweed [13, 18]: 0; Plant response rating, Ryegrass, Italian [14, 18]: 40; Plant response rating, Galium [15, 18]: 40; Plant response rating, Horseweed [16, 18]: 0
4 | C[C@H]1CN(C(=O)c2cccc(-c3cn(C)cn3)c2)c2cccc(Cl)c2O1 [Compound 293] | 0 | 0 | 0 | 0 | 10 | 0 | 0 |  |  |  |  |  |  |  |  |  | 0 | 0 | 0 | 10 | Plant response rating, Barnyardgrass [8, 18]: 0; Plant response rating, Ragweed [13, 18]: 0; Plant response rating, Ryegrass, Italian [14, 18]: 0; Plant response rating, Galium [15, 18]: 0; Plant response rating, Horseweed [16, 18]: 30
5 | Cc1cc(-c2cccc(C(=O)N3C[C@H](C)Oc4c(C)cccc43)c2)ccn1 [Compound 163] | 0 | 10 | 10 | 0 | 0 | 0 | 20 | 0 | 20 | 10 | 50 | 30 | 20 | 0 | 0 | 0 |  |  |  |  | 
6 | Cc1ccc(-c2cccc(C(=O)N3C[C@H](C)Oc4c(C)cccc43)c2)nn1 [Compound 160] | 30 | 0 | 30 | 70 | 20 | 0 | 40 | 10 | 20 | 40 | 70 | 0 | 0 | 0 | 50 | 0 |  |  |  |  | 
7 | Cc1ccc(-c2cccc(C(=O)N3C[C@H](C)Oc4c(C)cccc43)c2)cn1 [Compound 159] | 0 | 0 | 20 | 0 | 20 | 0 | 20 | 10 | 0 | 30 | 40 | 20 | 60 | 40 | 50 | 0 |  |  |  |  | 
8 | CCOC(=O)c1cncn1-c1cccc(C(=O)N2C[C@H](C)Oc3c(C)cccc32)c1 [Compound 298] | 0 | 0 | 30 | 50 | 40 | 0 | 0 |  |  |  |  |  |  |  |  |  | 0 | 0 | 0 | 0 | Plant response rating, Barnyardgrass [8, 18]: 0; Plant response rating, Ragweed [13, 18]: 40; Plant response rating, Ryegrass, Italian [14, 18]: 0; Plant response rating, Galium [15, 18]: 20; Plant response rating, Horseweed [16, 18]: 0
